Data reported in US10350334B2, “Catheter locking solution having antimicrobial and anticoagulation properties” (Becton, Dickinson and Company, priority 2009, dated 2019).

Legend:
Format in all cases: cell-based
[1] = tested on: Staphylococcus epidermidis; experiment: Planktonic cell tests; settings: 12 mg/mL, 30 and 60 minutes
Procedure: In the planktonic cell tests, bupivacine was tested against non-adhering coagulase negative S. epidermidis, which is the bacterial species most prominent in the pathogenesis of CR-BSI. The planktonic cell experiments were performed by the following procedures. First, bacterial suspensions were prepared. Particularly, using BD BBL™ Qualiswab™, S. epidermidis was plated on a Tryptic Soy Broth (TSB) Petri Dish and grown overnight at 37° C. Using a sterile loop, a colony of S. epidermidis was picked up from the TSB Petri Dish and placed into a sterile flask containing 25 mL of sterile TSB media. The flask was then placed in a 37° C. shaking incubator and was shaken at 150 RPM overnight. The next day, 15 mL of the prepared bacterial suspension was placed into an autoclaved centrifuge tube and centrifuged at 10,000 RPM for 10 minutes using a Sorval Centrifuge. The bacteria from the bacterial suspension were rinsed in 0.9% saline by discarding the liquid media (after centrifugation step) and by resuspending the microbial pellet in 20 mL of sterile 0.9% saline. The bacteria were centrifuged and rinsed twice more, for a total of three saline rinses. […]
Bulk concentrations of the bupivacaine and/or vancomyacin (as noted in FIG. 1) were prepared in separate beakers and were filter sterilized. […] Samples were also assessed at time 0, in which there was no exposure to antimicrobials. […]

Candida albicans biofilm = experiment: Catheter biofilm eradication (catheter segment test) on silicone tubing; settings: 1 hour, silicone catheter segments
Procedure: (§1) To understand the antimicrobial effects of the local anesthetics used in the lock solution of the present invention in a clinical setting, a biofilm was grown on silicone catheter-like tubing and treated with various concentrations of local anesthetics. First, a sterile silicone catheter-like tube containing 10 mL TSB media was inoculated with a BD BBL™ Qualiswab™, and placed in an incubator at 37° C. overnight. The next day, a sterile flask containing 25 mL TSB (for bacterial species) or 25 mL SDB (for fungal species) was inoculated with the cultured cells. The morning of the experiment, a new flask containing 25 mL of media was inoculated with the new overnight suspension. These steps were taken to ensure that cells were in the log phase, which for S. epidermidis was ˜3-4 hours, and for C. albicans was around ˜18 hrs. […] Microbial concentrations were adjusted to 1×10^5 CFU/mL by dilution with appropriate media. Silicone catheter-like tubing was terminally sterilized by autoclaving the tube for 45 minutes at 121° C. The sterilized catheter-like tubing was inoculated with 1×10^5 CFU/mL for 2 hours under continuous flow. Continuous flow was created by using a peristaltic pump, in which bacterial suspension was flowed through the catheter segments into a waste reservoir. After the 2 hour time period, the same set up was used to pump TSB media through the tubing for an additional 24 hours to allow biofilm to form on the walls of the catheter lumen. After 24 hours, sterilized saline was pumped through the lumen for 30 minutes to rinse the catheters. Catheters were then cut into 1 inch segments using sterile techniques. Catheter segments were dropped into sterile tubes containing 4 mL of antimicrobials, and incubated in a 37° C. incubator shaker for 1 hour. Segments were removed from treatment tubes and placed into new tubes filled with 6 mL of sterile saline. Each segment was swabbed with a sterile swab and both the tube and the swab were sonicated (Ultrasonic cleaner VWR Model 250T) for 3 minutes. Tubes and swabs were then vortexed (Fisher Scientific Vortex Mixer #02-215-365) for 30 seconds each. One hundred microliters of suspension was plated onto TSB agar plates (SDB for fungal species). The remaining 5.9 mL of suspension was passed through 0.4 μm filters and filters were placed on TSB plates. This step was taken to ensure that all possible bacteria were being recovered. All TSB plates were then incubated at 37° C. in a static incubator for 24-48 hours, at which time colony forming units were counted.

[2] = tested on: Staphylococcus epidermidis biofilm; experiment: as above; settings: 1 hour, silicone catheter segments
Procedure: as §1

Row | SMILES | antimicrobial effect against planktonic Staphylococcus epidermidis [1] | Log reduction of established biofilm (Candida albicans biofilm) [Log] | Log reduction of established biofilm ([2]; 16 mg/mL) [Log] | eradication of established biofilm (Candida albicans biofilm; 30 mg/mL) | Log reduction of established biofilm ([2]; 30 mg/mL) [Log]
1 | CCCCN1CCCCC1C(=O)Nc1c(C)cccc1C.Cl (centres unmarked) [Bupivacaine, Bupivacaine HCl] | significant antimicrobial effect | ~1 | ~0.5 | – | –
2 | CCCCNc1ccc(C(=O)OCCN(C)C)cc1.Cl [Tetracaine, Tetracaine HCl] | – | – | – | completely eradicated | 1.7
